Where “and” joins values, the source holds several entries; their conditions need not be identical. Equal values may be shown once. Read-outs that look alike come from different tables or passages of the source. Where a SMILES comes first, the peptide text is derived from it.
System: C. elegans
[1] = Table S2, C. elegans SS assay, 110 μM, averages of 4 data points

Compound	Percentage of motility inhibition 0 h [1]	Percentage of motility inhibition 24 h [1]	Percentage of motility inhibition 0 h (110 μM)	Percentage of motility inhibition 24 h (110 µM)
CC(C)=CC1CC(O)(C2CCC3(C)C2CCC2C4(C=O)CCC(OC5OCC(O)C(OC6OCC(O)C(O)C6O)C5OC5OC(C)C(O)C(O)C5O)C(C)(C)C4CCC23C)C(O)O1 (stereo not drawn) [Gypenoside A]	0%	0%	–	–
CC(C)=CCC[C@@](C)(O)[C@H]1CC[C@]2(C)[C@@H]1[C@H](O)C[C@@H]1[C@@]3(C)C[C@@H](O)[C@H](O[C@@H]4O[C@H](CO)[C@@H](O)[C@H](O)[C@H]4O[C@@H]4O[C@H](CO)[C@@H](O)[C@H](O)[C@H]4O)C(C)(C)[C@@H]3CC[C@]12C [Gypenoside LI]	0%	0%	–	–
CC(C)=CCC[C@](C)(O)[C@H]1CC[C@]2(C)[C@@H]1[C@H](O)C[C@@H]1[C@@]3(C)C[C@@H](O)[C@H](O[C@@H]4O[C@H](CO)[C@@H](O)[C@H](O)[C@H]4O[C@@H]4O[C@H](CO)[C@@H](O)[C@H](O)[C@H]4O)C(C)(C)[C@@H]3CC[C@]12C [Gypenoside L]	22%	15%	–	–
CC(C)=CCC[C@](C)(O[C@@H]1O[C@H](CO[C@@H]2OC[C@@H](O)[C@H](O)[C@H]2O)[C@@H](O)[C@H](O)[C@H]1O)[C@H]1CC[C@]2(C)[C@@H]1[C@H](O)C[C@@H]1[C@@]3(C)CC[C@H](O)C(C)(C)[C@@H]3CC[C@]12C [Gypenoside XIII]	7%	13%	–	–
CC(C)=CCC[C@@](O)(CO[C@@H]1O[C@H](CO)[C@@H](O)[C@H](O)[C@H]1O)[C@H]1CC[C@]2(C)[C@@H]1CC[C@@H]1[C@@]3(C=O)CC[C@H](O[C@@H]4OC[C@H](O)[C@H](O[C@@H]5OC[C@@H](O)[C@H](O)[C@H]5O)[C@H]4O[C@@H]4O[C@@H](C)[C@H](O)[C@@H](O)[C@H]4O)C(C)(C)[C@@H]3CC[C@]12C [Gypenoside XLIX]	3%	6%	–	–
CC(C)=CCCC(C)(OC1OC(CO)C(O)C(O)C1O)C1CCC2(C)C1C(O)CC1C3(C)CC(O)C(OC4OC(CO)C(O)C(O)C4OC4OC(CO)C(O)C(O)C4O)C(C)(C)C3CCC12C (stereo not drawn) [Gypenoside XLVI]	1%	2%	–	–
CN[C@H]1[C@H](O)[C@H](O[C@@H]2[C@@H](O)[C@H](O[C@H]3O[C@H](C(C)O)[C@@H](O)[C@H](O)[C@H]3N)[C@@H](N)C[C@H]2N)OC[C@@]1(C)O.O=S(=O)(O)O.O=S(=O)(O)O (stereo partly drawn) [G‐418 (disulfate)]	26%	11%	–	–
CCCC(C(=O)O)c1c(C)nc2ccc(Cl)cc2c1-c1ccccc1 (stereo not drawn) [HIV‐1 integrase inhibitor 2]	14%	13%	–	–
[N-]=[N+]=NCc1cccc(/C(O)=C/C(=O)C(=O)O)c1 [HIV‐1 integrase inhibitor]	22%	10%	–	–
Br.O=C(CC1NCCCC1O)Cn1cnc2cc(Br)c(Cl)cc2c1=O (stereo not drawn) [Halofuginone (hydrobromide)]	4%	0%	–	–
CC1=NCCc2c1[nH]c1cc(O)ccc21.Cl [Harmalol (hydrochloride)]	17%	2%	–	–
COc1ccc2c(c1)[nH]c1c(C)nccc12.Cl [Harmine (hydrochloride)]	22%	11%	–	–
COC(=O)C1=CO[C@@H](O[C@@H]2O[C@H](CO)[C@@H](O)[C@H](O)[C@H]2O)[C@@H]2[C@@H](C)CC(=O)[C@]12O [Hastatoside]	0%	8%	–	–
C[C@@H]1O[C@@H](O[C@H]2[C@H](O[C@H]3CC[C@@]4(C)[C@@H](CC[C@]5(C)[C@@H]4CC=C4[C@@H]6CC(C)(C)CC[C@]6(C(=O)O[C@@H]6O[C@H](CO[C@@H]7O[C@H](CO)[C@@H](O[C@@H]8O[C@@H](C)[C@H](O)[C@@H](O)[C@H]8O)[C@H](O)[C@H]7O)[C@@H](O)[C@H](O)[C@H]6O)CC[C@]45C)[C@]3(C)CO)OC[C@H](O)[C@@H]2O)[C@H](O)[C@H](O)[C@H]1O [Hederacoside C]	18%	0%	–	–
C[C@@H]1O[C@@H](O[C@H]2[C@H](O)[C@@H](O)[C@H](OC[C@H]3O[C@@H](OC(=O)[C@]45CCC(C)(C)C[C@H]4C4=CC[C@@H]6[C@@]7(C)CC[C@H](O[C@@H]8OC[C@H](O)[C@H](O)[C@H]8O)[C@@](C)(CO)[C@@H]7CC[C@@]6(C)[C@]4(C)CC5)[C@H](O)[C@@H](O)[C@@H]3O)O[C@@H]2CO)[C@H](O)[C@H](O)[C@H]1O [Hederacoside D]	2%	2%	–	–
O=Cc1ccc(O[C@@H]2O[C@H](CO)[C@@H](O)[C@@H](O)[C@H]2O)cc1 [Helicid]	11%	4%	–	–
COc1ccc([C@@H]2CC(=O)c3c(O)cc(O[C@@H]4O[C@H](CO)[C@@H](O)[C@H](O)[C@H]4O)cc3O2)cc1O [Hesperetin 7‐O‐glucoside]	16%	14%	–	–
COc1ccc([C@@H]2CC(=O)c3c(O)cc(O[C@@H]4O[C@H](CO[C@@H]5O[C@@H](C)[C@H](O)[C@@H](O)[C@H]5O)[C@@H](O)[C@H](O)[C@H]4O)cc3O2)cc1O [Hesperidin]	–	2% and 0%	–	–

Compound	Percentage of motility inhibition 0 h [1]	Percentage of motility inhibition 24 h [1]	Percentage of motility inhibition 0 h (110 μM)	Percentage of motility inhibition 24 h (110 µM)
Cl.Oc1ccc(CC2NCCc3cc(O)c(O)cc32)cc1 (stereo not drawn) [Higenamine (hydrochloride)]	0%	7%	–	–
Cl.Cl.NCCc1c[nH]cn1 [Histamine (dihydrochloride)]	0%	3%	–	–
NCCc1c[nH]cn1.O=P(O)(O)O.O=P(O)(O)O [Histamine (phosphate)]	6% and 9%	–	–	–
COc1c(O[C@@H]2O[C@H](CO)[C@@H](O)[C@H](O)[C@H]2O)cc2oc(-c3ccc(O)cc3)cc(=O)c2c1O [Homoplantaginin]	19%	5%	–	–
C[C@@H](CO)[C@@H]1CC[C@@]2(CC[C@]3(C)[C@H](CC[C@@H]4[C@@]5(C)CC[C@H](O[C@@H]6O[C@H](CO)[C@@H](O)[C@H](O)[C@H]6O[C@@H]6O[C@H](CO)[C@@H](O)[C@H](O)[C@H]6O)[C@@](C)(CO[C@@H]6O[C@H](CO)[C@@H](O)[C@H](O)[C@H]6O)[C@@H]5CC[C@]43C)[C@H]2O)CO1 [Hosenkoside A]	15%	19%	–	–
C[C@H](CO[C@@H]1O[C@H](CO)[C@@H](O)[C@H](O)[C@H]1O)[C@H]1CC[C@@]2(CC[C@]3(C)[C@H](CC[C@@H]4[C@@]5(C)CC[C@H](O[C@@H]6O[C@H](CO)[C@@H](O)[C@H](O)[C@H]6O[C@@H]6O[C@H](CO)[C@@H](O)[C@H](O)[C@H]6O)[C@@](C)(CO)[C@@H]5CC[C@]43C)[C@H]2O)CO1 [Hosenkoside B]	7%	10%	–	–
C[C@H](CO[C@@H]1O[C@H](CO)[C@@H](O)[C@H](O)[C@H]1O)[C@H]1CC[C@@]2(CC[C@]3(C)[C@H](CC[C@@H]4[C@@]5(C)CC[C@H](O[C@@H]6O[C@H](CO)[C@@H](O)[C@H](O)[C@H]6O[C@@H]6OC[C@@H](O)[C@H](O)[C@H]6O)[C@@](C)(CO)[C@@H]5CC[C@]43C)[C@H]2O)CO1 [Hosenkoside F]	12%	0%	–	–
C[C@@H](CO[C@@H]1O[C@H](CO)[C@@H](O)[C@H](O)[C@H]1O)[C@@H]1CC[C@@]2(CC[C@]3(C)[C@H](CC[C@@H]4[C@@]5(C)CC[C@H](O[C@@H]6O[C@H](CO)[C@@H](O)[C@H](O)[C@H]6O[C@@H]6O[C@H](CO)[C@@H](O)[C@H](O)[C@H]6O)[C@@](C)(CO[C@@H]6O[C@H](CO)[C@@H](O)[C@H](O)[C@H]6O)[C@@H]5CC[C@]43C)[C@H]2O)CO1 [Hosenkoside K]	10%	2%	–	–
C[C@@H](CO[C@@H]1O[C@H](CO)[C@@H](O)[C@H](O)[C@H]1O)[C@@H]1CC[C@@]2(CC[C@]3(C)[C@H](CC[C@@H]4[C@@]5(C)CC[C@H](O[C@@H]6O[C@H](CO)[C@@H](O)[C@H](O)[C@H]6O[C@@H]6OC[C@@H](O)[C@H](O)[C@H]6O)[C@@](C)(CO[C@@H]6O[C@H](CO)[C@@H](O)[C@H](O)[C@H]6O)[C@@H]5CC[C@]43C)[C@H]2O)CO1 [Hosenkoside M]	5%	0%	–	–
CCC1=N[C@H]2C[C@@]3(C(=O)N(OC)c4ccccc43)[C@H]3CC1[C@@H]2CO3 [Humantenmine]	8%	12%	–	–
C[C@H]1CC[C@H]2[C@H](C)[C@@H]3CC[C@@H]4[C@@H](C[C@H]5[C@H]4C[C@@H](O)[C@H]4C[C@@H](O)CC[C@@]45C)[C@@H]3CN2C1 [Hupehenine]	0%	10%	–	–
CC[C@H]1CN2CC[C@H]1C[C@@H]2[C@@H](O)c1ccnc2ccc(OC)cc12 [Hydroquinidine]	29% and 50%	–	–	–
COc1cc(O)c2c(=O)cc(-c3ccc(O)c(O)c3)oc2c1 [Hydroxygenkwanin]	11%	13%	–	–
C/C=C/C=C/C=C\CC/C=C/C(=O)NCC(C)(C)O [Hydroxy‐α‐sanshool]	3%	0%	–	–
C/C=C/C=C/C=C/CC/C=C/C(=O)NCC(C)(C)O [Hydroxy‐β‐sanshool]	46%	10%	–	–
NCC(=O)N1CCC[C@H]1C(=O)O [H‐Gly‐Pro‐OH] (H-Gly-Pro-OH)	8%	4%	–	–
NCCCC[C@H](NC(=O)[C@H](Cc1c[nH]c2ccccc12)NC(=O)[C@@H](N)CCCCN)C(=O)O [H‐Lys‐Trp‐Lys‐OH] (H-Lys-Trp-Lys-OH)	–	–	55%	10%
CCCCCCCCCCCCC(=O)NNC(=O)c1c(O)c2ccccc2n(CC)c1=O [I2906]	27%	30%	–	–

From PMC11855827, “High-Throughput Screening of Five Compound Libraries for Anthelmintic Activity and Toxicity Leads to the Discovery of Two Flavonoid Compounds” (International Journal of Molecular Sciences, 2025)
